Publication PMC10557233, “Controlled release of Clenbuterol from a hydroxyapatite carrier for the treatment of Alzheimer’s Disease” (Biomaterials Research, 2023)
Where two headings read alike, the source gives them in different places.

How the values were obtained:
Aβ42 peptides = target: T1, Aβ42 peptides (Homo sapiens, UniProt P05067); assay: Thioflavin T fluorescence assay and TEM of Aβ aggregation; type: biochemical
T1 construct: Aβ42 peptides were obtained from Peptide Institute, Inc; purchased Peptide Institute, Inc. (ASIA BIOSCIENCE Co., Ltd., Taiwan)
Protocol: Aβ42 peptides were obtained from Peptide Institute, Inc. (ASIA BIOSCIENCE Co., Ltd., Taiwan) and dissolved in hexafluoro-2-propanol (HFIP; Oakwood Products, Estill, SC, USA) to a final concentration of 1 mM for monomerization. The resulting solution was stored at − 80 °C. The monomerized peptides were resuspended in anhydrous DMSO (catalog number D-2650, Sigma) and diluted to a concentration of 100 µM using Dulbecco’s modified Eagle’s medium (DMEM, Sigma) before use. Aβ fibrils were formed by shaking the solution at 37 °C for 3 days. The morphology of the fibrils, with or without CLB incubation for 3 days, was observed using transmission electron microscopy (TEM). Samples were incubated with 1% uranyl acetate for 1 min before TEM.
The progression of amyloid β aggregation was tracked using thioflavin T (ThT), a fluorescent dye originally used to stain amyloid fibrils in histological samples. […] ThT fluorescence was measured at 25 °C using a spectrophotometric plate reader (ELISA reader, Tecan Sunrise, Switzerland) with an excitation filter at 450 nm and an emission filter at 482 nm, the computation of intensity was performed through the utilization of SoftMax Pro 7.0 software (Molecular Devices, CA, USA). After ThT binds to β-sheet aggregate structures, such as amyloid fibrils, its fluorescence emission changes, allowing the monitoring of amyloid β aggregation.

N2a cell line = assay: N2a cell viability versus concentration (IC50); type: cell-based; conditions: Mus musculus; N2a cells; called predicted IC50; read-out: IC50 (concentration at which 50% cell survival was observed)
[1] = tested on: rats with AlCl3-induced AD; assay: Morris water maze test in rats with AlCl3-induced AD; type: in vivo, SD rats; conditions: 6 mg/kg intramuscular weekly, 8 weeks
Protocol: (§1) The study used 60 male SD rats (BioLASCO, Taiwan; average age, 8 weeks). The study was approved by the Institutional Animal Care and Use Committee (No. 20,190,497) of National Taiwan University. CLB.HCl (Sigma-Aldrich C5423; Lot# BCBQ2163V) powder was stored at 4 °C and diluted in sterile 0.9% saline to a concentration of 20 µM based on the free base before injection. AlCl3 (7446-70-0, Sigma-Aldrich) was dissolved in normal saline before injection, and 70 mg/kg body weight of AlCl3 was administered intraperitoneally (i.p.) three times weekly for 8 weeks as previously described. […] After 8 weeks, several animal behavioral tests, histological staining, pharmacokinetics, and biochemical analyses were performed.
This study used a circular pool partitioned into four quadrants, one of which contained an underwater platform. […] After four training sessions, the time taken by the rats to reach the escape platform was measured using EthoVision software (Noldus Information Technology, Wageningen, Netherlands). […] To evaluate spatial memory, the time taken by each rat to reach the platform from the starting position was recorded. On the contrary, working memory was assessed by determining the amount of time spent by the rat in the same quadrant (up to 120 s) but without a platform. The time spent in the quadrant without a platform was also recorded.

L929 cell line = assay: Biocompatibility by WST-1 assay (ISO 10993); type: cell-based
Protocol: The extracted supernatants were collected for subsequent experiments. Zinc diethyldithiocarbamate was used as a positive control and aluminum oxide was used as a negative control. After adding the WST-1 solution to the wells, the plate was incubated for 2 h, and the absorbance of each well was measured at 450 nm using a spectrophotometric plate reader (ELISA reader, Tecan Sunrise, Switzerland). The percentage of viable cells was calculated using the following equation:
Cell viability (%) = ((OD experiment - OD background) ×100)/ ((OD control - OD background))…(2).

[2] = Plasma pharmacokinetics of CLB by LC-MS/MS after intramuscular administration; type: in vivo, SD rats
Protocol: as §1
LC-MS/MS was used to perform quantitative analysis using an LCMS8030 system (Shimadzu, Japan). We used the multiple reaction monitoring mode for mass spectrometric analysis, and the MS/MS parameters were optimized by flow injection analysis. Plasma samples were prepared using simple protein precipitation in methanol. The specificity of the method was tested by analyzing blank rat plasma, blank rat plasma spiked with clenbuterol-d9 (internal standard, IS), and plasma samples collected after CLB administration. A Thermo Hypersil Gold aQ C18 column (50 mm × 2.1 mm) with a particle size of 1.9 μm was used for separation. The mobile phase gradient consisted of (A) 2% methanol in pure water + 0.1% formic acid, and (B) methanol with 0.1% formic acid. The gradient elution was as follows: 30% B (0 min), 30% B (0.5 min), 98% B (2.5 min), 98% B (3.5 min), 30% B (4 min), and 30% B (5.5 min) at a flow rate of 300 µL/min, with a total run time of […]. A calibration curve was constructed using the plasma concentration of the quality control (QC) sample and the peak area ratio (y) of the QC sample to the IS. The linear calibration curves of CLB ranged from 0.5 to 200 ng/mL, with correlation coefficients over 0.99952. The injection volume of the final solution was 20 µL for the serum specimens. To evaluate the accuracy, precision, and extraction recovery of the assay, three sequential assays were performed with six replicates of QC samples (5, 50, and 500 ng/mL CLB) for each assay. QC samples were prepared from normal blank rat plasma at concentrations of 0.5, 2, 5, 20, 50, 200, and 500 ng/mL of CLB. The concentrations of the QC samples were calculated based on the calibration curve and compared with those of the control samples with the same concentration. For the brain sample homogenization procedures, a brain sample and an equivalent weight of 25% plasma solution were mixed in a 50 mL centrifuge tube and homogenized completely at 30,000 rpm on ice. The resulting homogenized solution was centrifuged and the supernatant was collected as a test sample. The test sample was filtered through a 0.2 μm GHP filter, and 200 µL of the sample mixture was transferred into a new 96-well 1 mL round collection plate and sealed. Finally, the samples were placed in an autosampler to be injected.

[3] = Drug content in brain tissues by LC/MS/MS; type: in vivo, SD rats; conditions: male, SD, 6 mg/kg; rat brain homogenate, intramuscular injection; read-out: Concentration in brain tissues 24 h after injection
Protocol: as §1
LC-MS/MS was used to perform quantitative analysis using an LCMS8030 system (Shimadzu, Japan). We used the multiple reaction monitoring mode for mass spectrometric analysis, and the MS/MS parameters were optimized by flow injection analysis. Plasma samples were prepared using simple protein precipitation in methanol. The specificity of the method was tested by analyzing blank rat plasma, blank rat plasma spiked with clenbuterol-d9 (internal standard, IS), and plasma samples collected after CLB administration. […] The concentrations of the QC samples were calculated based on the calibration curve and compared with those of the control samples with the same concentration. […]

BV-2 microglial cells = assay: Western blot analysis of LPS-induced inflammation; type: cell-based
Protocol: LPS (L2880, Sigma) was dissolved in normal saline before injection. BV2 cells were seeded in 6-well plates at a density of 10^5 cells/well and cultured for 1 day to allow full adhesion. […] Subsequently, LPS (1 µg/mL) was added to induce inflammation for 24 h. The medium was then removed and the BV2 cells were washed three times with PBS. The cells were then lysed in 100 µL of ice-cold radioimmunoprecipitation assay buffer, and protein concentrations were quantified using the Bio-Rad protein assay. Equal amounts of proteins were electrophoresed on a 10% sodium dodecyl sulfate-polyacrylamide gel. The separated proteins were transferred onto nitrocellulose membranes and incubated with primary monoclonal mouse antibodies (BIOTOOLS Co., Ltd., Taipei, Taiwan) against IL-6 (1:1000), IL-1β (1:1000), TNF-α (1:1000), and β-actin (1:5000) overnight at 4 °C. Following incubation with the appropriate secondary antibody, the signals were analyzed using an imaging system (Bio-Rad).

[4] = tested on: rats with AlCl3-induced AD; assay: Western blot of brain tissue for synapsin-1, synaptophysin, BACE1 and TNF-α; type: in vivo, SD rats; conditions: compared with the AD group
Protocol: as §1

[5] = male, SD, im, rat plasma, 6 mg/kg intramuscular

T1 sequence (P05067 672-713 limits assumed): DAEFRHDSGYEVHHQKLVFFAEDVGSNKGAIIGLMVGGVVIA

| Compound | effect on Aβ aggregates (ThT fluorescence) (Aβ42 peptides; 10 µM Aβ incubated with 20 µM CLB) | effect on Aβ fibrils (TEM) (Aβ42 peptides; Aβ and CLB co-incubated for 3 days) | IC50 (N2a cell line) [µM] | time to locate the escape platform (MWM) [1] | cell viability / cytotoxicity (L929 cell line; L929 cells, day 3, WST-1, extract medium) | half-life ([2]; SD, rat, plasma, intramuscular, 6 mg/kg, rats) [h] | AUC(0-inf) [2, 5] [ng·h/mL] | Tmax [2, 5] [h] | AUC(0-t) ([2]; male, SD, im, rat plasma, 6 mg/kg intramuscular, 0.5-168 hr) [ng·h/mL] | Cmax ([2]; male, SD, rat, plasma, im, 6 mg/kg, rat plasma, 6 mg/kg intramuscular, read-out: Cmax) [ng/mL] | Cmax ([2]; rat plasma, 6 mg/kg intramuscular, 6 mg/kg) [ng/mL] | accumulation after multiple-dose administration ([2]; rats, repeated intramuscular dosing) | concentration at 24 h [3] [ng/mL] | protein expression levels of IL-1β, IL-6, and TNF-α (BV-2 microglial cells; LPS-induced BV-2 cells, western blot) | secretion of IL-1β, IL-6, and TNF-α (BV-2 microglial cells; LPS-stimulated BV-2 cells, 20 µM, vs LPS-treated control cells) | expression of synapsin-1 and synaptophysin in hippocampus [4] | cell viability / cytotoxicity (L929 cell line) |
| --- | --- | --- | --- | --- | --- | --- | --- | --- | --- | --- | --- | --- | --- | --- | --- | --- | --- |
| CC(C)(C)NCC(O)c1cc(Cl)c(N)c(Cl)c1 (centres unmarked) [CLB, Clenbuterol] | extensive fragmentation | disassembled amyloid plaques | 20 | did not exhibit a performance similar to that of the SHAP-CLB group | no notable disparities in cell viability | ~30 | 5200 ± 4000 | 4 | 4890 ± 3740 | 120 ± 12.8 | 120.19 | no apparent accumulation | 5.24 ± 1.81 | prominently reduced | significant inhibitory effects | significant increase | – |
| Hydroxyapatite [HAP] | – | – | – | – | – | – | – | – | – | – | – | – | – | – | – | – | no notable disparities in cell viability |
